Patent US7994211B2, “Bicyclo[2.2.1]hept-7-ylamine derivatives and their uses” (Argenta Discovery Limited, priority 2005, dated 2011)

target: T1, human β2 adrenergic receptor (Homo sapiens, UniProt P07550); test: β-Adrenergic receptor radioligand binding assay ([125I]-Iodocyanopindolol); conditions: not given
T1 construct: purchased
Protocol: Radioligand binding studies utilising [^125I]-Iodocyanopindolol and commercially available cell membranes expressing the human β2 adrenergic receptor were used to assess the affinity of antagonists for β2-adrenergic receptor. Membranes and SPA-beads were incubated with [^125I]-Iodocyanopindolol and β2 antagonist at various concentrations for 3 hours at ambient temperature in TRIS buffer. The assay was performed in 96-well plates which were read using the Wallac Microbeta counter.

T1 sequence (P07550 whole entry): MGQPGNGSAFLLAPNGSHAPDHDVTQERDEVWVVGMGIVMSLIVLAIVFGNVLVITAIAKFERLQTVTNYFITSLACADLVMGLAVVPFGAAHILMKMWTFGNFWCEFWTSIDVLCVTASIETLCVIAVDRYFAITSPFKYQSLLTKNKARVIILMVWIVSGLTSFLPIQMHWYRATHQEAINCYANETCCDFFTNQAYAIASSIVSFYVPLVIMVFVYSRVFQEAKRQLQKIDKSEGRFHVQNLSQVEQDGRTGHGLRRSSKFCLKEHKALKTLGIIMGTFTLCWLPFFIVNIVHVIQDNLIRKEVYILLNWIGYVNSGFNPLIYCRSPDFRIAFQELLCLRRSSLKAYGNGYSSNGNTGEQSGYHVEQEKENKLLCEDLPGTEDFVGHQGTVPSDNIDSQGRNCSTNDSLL

CN(CCCCCCCCCNC[C@H](O)c1ccc(O)c2[nH]c(=O)ccc12)[C@H]1[C@H]2CC[C@@H]1[C@H](OC(=O)C(O)(c1cccs1)c1cccs1)C2 [Example 41, Hydroxy-di-thiophen-2-yl-acetic acid (1S,2R,4S,7S)-7-({9-[(R)-2-hydroxy-2-(8-hydroxy-2-oxo-1,2-dihydro-quinolin-5-yl)-ethylamino]-nonyl}-methyl-amino)-bicyclo[2.2.1]hept-2-yl ester] showed a Ki of less than 100 nM.

target: T2, human muscarinic receptors (M3) (Homo sapiens, UniProt P20309); test: Muscarinic receptor radioligand binding assay ([3H]-NMS); conditions: membranes expressing human M3 receptor, read-out: Binding potency (M3 binding potencies, Ki values)
T2 construct: purchased
T2 sequence (P20309 whole entry): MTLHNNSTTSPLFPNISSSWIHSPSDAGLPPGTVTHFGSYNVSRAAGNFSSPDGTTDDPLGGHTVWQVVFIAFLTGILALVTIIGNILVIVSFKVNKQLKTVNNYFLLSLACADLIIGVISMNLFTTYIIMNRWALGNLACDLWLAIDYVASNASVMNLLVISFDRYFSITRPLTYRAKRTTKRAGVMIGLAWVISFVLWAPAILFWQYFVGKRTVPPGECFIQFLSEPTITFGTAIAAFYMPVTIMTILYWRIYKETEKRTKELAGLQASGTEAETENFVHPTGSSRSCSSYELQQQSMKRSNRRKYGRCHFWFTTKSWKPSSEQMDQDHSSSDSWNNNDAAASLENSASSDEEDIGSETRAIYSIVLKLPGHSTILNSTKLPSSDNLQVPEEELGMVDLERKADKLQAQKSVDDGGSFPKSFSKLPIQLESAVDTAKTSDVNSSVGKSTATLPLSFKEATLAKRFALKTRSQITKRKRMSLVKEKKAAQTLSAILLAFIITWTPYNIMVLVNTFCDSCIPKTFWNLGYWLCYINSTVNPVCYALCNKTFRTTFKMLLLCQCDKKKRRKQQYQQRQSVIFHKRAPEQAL
Protocol: Radioligand binding studies utilising [^3H]-N-methyl scopolamine ([^3H]-NMS) and commercially available cell membranes expressing the human muscarinic receptors (M2 and M3) were used to assess the affinity of muscarinic antagonists for M2 and M3 receptors. Membranes in TRIS buffer were incubated in 96-well plates with [^3H]-NMS and M3 antagonist at various concentrations for 3 hours. Membranes and bound radioligand were then harvested by filtration and allowed to dry overnight. Scintillation fluid was then added and the bound radioligand counted using a Canberra Packard Topcount scintillation counter.

First: CN(C)C1C2CCC1C(OC(=O)Nc1ccccc1-c1ccccc1)C2 (racemic) [Example 1, (±)-anti-Biphenyl-2-yl-carbamic acid 7-dimethylamino-bicyclo[2.2.1]hept-2-yl ester]
Second: C[N+](C)(C)C1C2CCC1C(OC(=O)Nc1ccccc1-c1ccccc1)C2 (racemic) [Example 8, (±)-syn-[2-(Biphenyl-2-ylcarbamoyloxy)-bicyclo[2.2.1]hept-7-yl]-trimethyl-ammonium iodide]
The Ki of the first is lower: less than 1 nM for the first, 1 to 10 nM for the second. The first binds more tightly here.

Compared with CN(C)C1C2CCC1C(OC(=O)Nc1ccccc1-c1ccccc1)C2 (single isomer, unassigned) [Example 2, anti-Biphenyl-2-yl-carbamic acid 7-dimethylamino-bicyclo[2.2.1]hept-2-yl ester], CN(CCCOc1ccccc1)C1C2CCC1C(OC(=O)Nc1ccccc1-c1ccccc1)C2 (single isomer, unassigned) [Example 9, anti-Biphenyl-2-yl-carbamic acid-7-[methyl-(3-phenoxy-propyl)-amino]bicyclo[2.2.1]hept-2-yl ester] is higher in Ki: less than 1 nM for the first, greater than 10 nM for the second. The first binds more tightly here.

Compared with CN(C)C1C2CCC1C(OC(=O)Nc1ccccc1-c1ccccc1)C2 (single isomer, unassigned) [Example 3, anti-Biphenyl-2-yl-carbamic acid 7-dimethylamino-bicyclo[2.2.1]hept-2-yl ester], CN(CCCOc1ccccc1)C1C2CCC1C(OC(=O)Nc1ccccc1-c1ccccc1)C2 (single isomer, unassigned) [Example 10, anti-Biphenyl-2-yl-carbamic acid-7-[methyl-(3-phenoxy-propyl)-amino]-bicyclo[2.2.1]hept-2-yl ester] is higher in Ki: 1 to 10 nM for the first, greater than 10 nM for the second.

First: CN(C)C1C2CCC1C(OC(=O)Nc1ccccc1-c1ccccc1)C2 (single isomer, unassigned) [Example 6, syn-Biphenyl-2-yl-carbamic acid 7-dimethylamino-bicyclo[2.2.1]hept-2-yl ester]
Second: C[N+](C)(CCCOc1ccccc1)C1C2CCC1C(OC(=O)Nc1ccccc1-c1ccccc1)C2 (single isomer, unassigned) [Example 11]
The Ki of the first is higher: 1 to 10 nM for the first, less than 1 nM for the second. The second binds more tightly here.

First: CN(C)C1C2CCC1C(OC(=O)Nc1ccccc1-c1ccccc1)C2 (single isomer, unassigned) [Example 7, syn-Biphenyl-2-yl-carbamic acid 7-dimethylamino-bicyclo[2.2.1]hept-2-yl ester]
Second: C[N+](C)(CCCOc1ccccc1)C1C2CCC1C(OC(=O)Nc1ccccc1-c1ccccc1)C2 (single isomer, unassigned) [Example 12]
The Ki of the first is higher: 1 to 10 nM for the first, less than 1 nM for the second.

Compared with CN(CCCOc1ccccc1)C1C2CCC1C(OC(=O)C1c3ccccc3Oc3ccccc31)C2 [Example 34, anti-(1S,2R) 9H-Xanthene-9-carboxylic acid 7-[methyl-(3-phenoxy-propyl)-amino]-bicyclo[2.2.1]hept-2-yl ester], C[N+](C)(CCCOc1ccccc1)C1C2CCC1C(OC(=O)C1c3ccccc3Oc3ccccc31)C2 [Example 36, anti-(1S,2R) Dimethyl-(3-phenoxy-propyl)-[2-(9H-xanthene-9-carbonyloxy)-bicyclo[2.2.1]hept-7-yl]-ammonium bromide] is lower in Ki: 1 to 10 nM for the first, less than 1 nM for the second.

In the case of C[N+](C)(CCCOc1ccccc1)C1C2CCC1C(OCC(O)(c1ccccc1)c1ccccc1)C2 [Example 40, anti-(1S,2R) 2-(2-Hydroxy-2,2-diphenyl-ethoxy)-bicyclo[2.2.1]hept-7-yl]-dimethyl-(3-phenoxy-propyl)-ammonium bromide], the Ki is reported as greater than 10 nM.
